Laboratory results taken from patent US12649751B2 (Arcus Biosciences, Inc., priority 2022, dated 2026).
Like-named read-outs stand apart in the source and are kept apart here.

Legend:
HPK1 = HPK1 (Homo sapiens, UniProt Q92918); test: HPK1 Biochemical Assay (ADP-Glo luminescence; low ATP 10 μM or high ATP 200 μM)
[1] = test system: p-SLP-76 (Ser376) in Jurkat cells; test: pSLP76 Cellular Assay (AlphaLISA SureFire Ultra p-SLP-76 (Ser376), anti-CD3 activated Jurkat cells); type: cell-based; details: Homo sapiens, read-out: Cellular Potency
Method in brief: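 Read-out is AlphaLISA p-SLP-76 (Ser376) signal at 570 nm in Jurkat lysates, with IC50 fitted by 4-parameter logistic. Cells were starved overnight, exposed 1 h at 37 °C to 22 twofold compound dilutions in HBSS, then activated 45 min with anti-CD3 (0.025 mg/ml stock added).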

[2] = HPK1 ADP-Glo assay, high ATP (200 μM ATP, 5 nM HPK1), read-out: Biochemical Potency (high ATP)
[3] = HPK1 ADP-Glo assay, low ATP (10 μM ATP, 2 nM HPK1), read-out: Biochemical Potency (low ATP)
[4] = pSLP76 (Ser376) AlphaLISA, anti-CD3 activated Jurkat cells
[5] = 2 nM HPK1, 10 μM ATP, read-out: Biochemical Potency (low ATP)
[6] = Jurkat cells, anti-CD3 stimulation, pSLP76

Sequence of HPK1 (Q92918 whole entry, species assumed): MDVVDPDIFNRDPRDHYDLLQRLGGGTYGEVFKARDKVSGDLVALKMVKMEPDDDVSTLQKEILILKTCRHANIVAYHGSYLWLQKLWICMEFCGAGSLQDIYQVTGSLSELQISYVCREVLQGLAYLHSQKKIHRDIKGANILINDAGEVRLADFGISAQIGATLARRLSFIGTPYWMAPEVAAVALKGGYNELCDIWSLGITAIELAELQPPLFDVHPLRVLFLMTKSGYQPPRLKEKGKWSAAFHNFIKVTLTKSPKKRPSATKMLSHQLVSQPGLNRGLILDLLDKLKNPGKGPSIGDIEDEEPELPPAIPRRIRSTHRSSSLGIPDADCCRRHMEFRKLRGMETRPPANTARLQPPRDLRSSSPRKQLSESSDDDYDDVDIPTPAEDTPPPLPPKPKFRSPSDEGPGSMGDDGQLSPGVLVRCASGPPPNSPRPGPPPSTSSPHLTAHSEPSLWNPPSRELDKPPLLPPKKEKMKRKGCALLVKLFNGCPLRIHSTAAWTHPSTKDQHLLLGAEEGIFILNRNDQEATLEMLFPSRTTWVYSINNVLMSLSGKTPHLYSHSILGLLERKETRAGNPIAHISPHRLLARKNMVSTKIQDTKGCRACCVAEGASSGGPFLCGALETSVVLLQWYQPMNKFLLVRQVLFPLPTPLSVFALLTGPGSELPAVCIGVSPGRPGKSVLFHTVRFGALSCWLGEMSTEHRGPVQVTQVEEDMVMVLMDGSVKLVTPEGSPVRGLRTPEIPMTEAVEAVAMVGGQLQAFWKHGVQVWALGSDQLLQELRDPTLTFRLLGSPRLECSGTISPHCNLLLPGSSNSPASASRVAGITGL

SMILES	IC50 (HPK1; [2]) [nM]	IC50 [1, 4] [nM]	IC50 (HPK1; [5]) [nM]	IC50 [1, 6] [nM]	further results
CCN1C[C@@H]2C[C@H]1CN2c1nc(C)cc(Nc2cc3nc(N[C@H](C)c4ccccc4)sc3cn2)n1 [Example 425]	< 100	1000 to 5000	–	–	–
Cc1cc(Nc2cc3nc(-c4cccc(C(=O)N(C)CC5CC5)c4)sc3cn2)nc(N2C[C@@H]3C[C@H]2CN3CCO)n1 [Example 558]	< 100	< 100	–	–	–
Cc1cc(-c2nc3cc(Nc4cc(C)nc(N5C[C@@H]6C[C@H]5CN6CCO)n4)ncc3s2)cc(N2CCCC2=O)c1 [Example 345]	< 100	< 100	–	–	–
Cc1cccc(F)c1-c1nc2cc(Nc3ccc(N4CCOCC4)c(CN(C)C)n3)ncc2s1 [Example 14, 6-[(Dimethylamino)methyl]-N-[2-(2-fluoro-6-methylphenyl)-[1,3]thiazolo[5,4-c]pyridin-6-yl]-5-(morpholin-4-yl)pyridin-2-amine]	–	–	< 100	100 to 1000	–
CNS(=O)(=O)c1cccc(-c2nc3cc(Nc4ccnc(N5C[C@@H]6C[C@H]5CN6C)n4)ncc3s2)c1 [Example 291, N-methyl-3-[6-({2-[(1S,4S)-5-methyl-2,5-diazabicyclo[2.2.1]heptan-2-yl]pyrimidin-4-yl}amino)-[1,3]thiazolo[5,4-c]pyridin-2-yl]benzene-1-sulfonamide]	–	–	< 100	100 to 1000	–
Cc1ccc(Nc2cc3nc(-n4nccc4C)sc3cn2)nc1CN1CCCC1 [Example 197, 5-Methyl-N-[2-(5-methyl-1H-pyrazol-1-yl)-[1,3]thiazolo[5,4-c]pyridin-6-yl]-6-[(pyrrolidin-1-yl)methyl]pyridin-2-amine]	–	–	< 100	100 to 1000	–
CN(C)Cc1nc(Nc2cc3nc(-c4c(F)cccc4F)sc3cn2)ccc1N1CCOCC1 [Example 1, N-[2-(2,6-Difluorophenyl)-[1,3]thiazolo[5,4-c]pyridin-6-yl]-6-[(dimethylamino)methyl]-5-(morpholin-4-yl)pyridin-2-amine]	–	–	< 100	–	IC50 ([1]; Jurkat): > 5000 nM
CN1C[C@@H]2C[C@H]1CN2c1cncc(Nc2cc3nc(-c4cccc(NS(C)(=O)=O)c4)sc3cn2)n1 [Example 412]	< 100	100 to 1000	–	–	IC50 (HPK1; [3]): < 100 nM
Cc1cccc(C)c1-c1nc2cc(Nc3ccc(N4CCOCC4)c(CN(C)C)n3)ncc2s1 [Example 13, 6-[(Dimethylamino)methyl]-N-[2-(2,6-dimethylphenyl)-[1,3]thiazolo[5,4-c]pyridin-6-yl]-5-(morpholin-4-yl)pyridin-2-amine]	–	–	< 100	100 to 1000	–
Cc1c(-c2nc3cc(Nc4ccc(N5CCOCC5)c(CN5CCCC5)n4)ncc3s2)cnc2c1NCCO2 [Example 27, N-(2-{8-Methyl-1H,2H,3H-pyrido[2,3-b][1,4]oxazin-7-yl}-[1,3]thiazolo[5,4-c]pyridin-6-yl)-5-(morpholin-4-yl)-6-[(pyrrolidin-1-yl)methyl]pyridin-2-amine]	–	–	< 100	100 to 1000	–
Cc1cc(C(=O)N(C)C)cc(-c2nc3cc(Nc4cc(C)cc(N5C[C@@H]6C[C@H]5CN6CCO)n4)ncc3s2)c1 [Example 347]	< 100	< 100	–	–	–
Cc1cc(Nc2cc3nc(-c4cccc5c4C(C)(C)C(=O)N5)sc3cn2)nc(N2C[C@@H]3C[C@H]2CN3CCO)n1 [Example 350]	< 100	< 100	–	–	–
Cc1cc(Nc2cc3nc(-c4cnn(CC5CC5)c4)sc3cn2)nc(N2C[C@@H]3C[C@H]2CN3CC(=O)N(C)C)n1 [Example 356]	100 to 1000	1000 to 5000	–	–	–
Cc1cc(Nc2cc3nc(-c4cnn(CC5CC5)c4)sc3cn2)nc(N2C[C@@H]3C[C@H]2CN3CCO)c1 [Example 348]	< 100	< 100	–	–	–
Cc1cc(Nc2cc3nc(-c4cccn5nccc45)sc3cn2)nc(N2C[C@@H]3C[C@H]2CN3CCO)n1 [Example 360]	< 100	1000 to 5000	–	–	–
Cc1cccnc1-c1nc2cc(Nc3ccc4c(n3)[C@](C)(N)CCC4)ncc2s1 [Example 316, (8R)-8-methyl-N2-[2-(3-methylpyridin-2-yl)-[1,3]thiazolo[5,4-c]pyridin-6-yl]-5,6,7,8-tetrahydroquinoline-2,8-diamine]	–	1000 to 5000	–	–	IC50 (HPK1; [3]): 1000 to 5000 nM
Cc1cc(Nc2cc3nc(-c4cccc(C(=O)N[C@H]5CCCOC5)c4)sc3cn2)nc(N2C[C@@H]3C[C@H]2CN3CCO)n1 [Example 541]	< 100	100 to 1000	–	–	–
Cc1cc(Nc2cc3nc(-c4ccnc(CC5CC5)c4)sc3cn2)nc(N2C[C@@H]3C[C@H]2CN3CCO)n1 [Example 308, 2-[(1S,4S)-5-(4-{2-[2-(cyclopropylmethyl)-4-pyridyl]-3-thia-1,5-diaza-6-indenylamino}-6-methyl-2-pyrimidinyl)-2,5-diazabicyclo[2.2.1]hept-2-yl]ethanol]	< 100	< 100	–	–	–
COCCn1cc(-c2nc3cc(Nc4cc(C)nc(N5C[C@@H]6C[C@H]5CN6C)n4)ncc3s2)cn1 [Example 376]	< 100	100 to 1000	–	–	–
CCN1C[C@@H]2C[C@H]1CN2c1nc(C)cc(Nc2cc3nc(-c4cccc(C(=O)N[C@H](C)C5CC5)c4)sc3cn2)n1 [Example 524]	< 100	< 100	–	–	–

Second part, led by results:

IC50 (HPK1; [2]) [nM]	IC50 [1, 4] [nM]	IC50 (HPK1; [5]) [nM]	IC50 [1, 6] [nM]	SMILES	further results
< 100	< 100	–	–	Cc1cccnc1-c1nc2cc(Nc3cnc(C4CCOCC4)c(N4C[C@@H]5C[C@H]4CN5)n3)ncc2s1 [Example 510]	IC50 (HPK1; [3]): < 100 nM
–	–	< 100	> 5000	Cc1ccc(Nc2cc3nc(-c4ncccc4C)sc3cn2)nc1CN1CC[C@@H](C#N)C1 [Example 54, 6 (3R)-1-[(3-Methyl-6-{[2-(3-methylpyridin-2-yl)-[1,3]thiazolo[5,4-c]pyridin-6-yl]amino}pyridin-2-yl)methyl]pyrrolidine-3-carbonitrile]	–
< 100	1000 to 5000	–	–	COC1CCN(c2cc(-c3nc4cc(Nc5cc(C)nc(N6C[C@@H]7C[C@H]6CN7C)n5)ncc4s3)ccn2)CC1 [Example 456]	–
< 100	100 to 1000	–	–	Cc1cc(Nc2cc3nc(-c4cccc(NC(=O)C5CC5)c4)sc3cn2)nc(N2C[C@@H]3C[C@H]2CN3C)n1 [Example 392]	–
< 100	100 to 1000	–	–	Cc1cccnc1-c1nc2cc(Nc3cc(C(C)(C)O)nc(N4C[C@@H]5C[C@H]4CN5C)n3)ncc2s1 [Example 304, 2-{2-[(1S,4S)-5-methyl-2,5-diazabicyclo[2.2.1]heptan-2-yl]-6-{[2-(3-methylpyridin-2-yl)-[1,3]thiazolo[5,4-c]pyridin-6-yl]amino}pyrimidin-4-yl}propan-2-ol]	–
–	–	< 100	< 100	c1cc(-c2nc3cc(Nc4ccc(C5CCOCC5)c(CN5CCCC5)n4)ncc3s2)ccn1 [Example 216, 5-(Oxan-4-yl)-N-[2-(pyridin-4-yl)-[1,3]thiazolo[5,4-c]pyridin-6-yl]-6-[(pyrrolidin-1-yl)methyl]pyridin-2-amine]	–
< 100	1000 to 5000	–	–	Cc1cccnc1-c1nc2cc(Nc3cccc(C4(F)CC5CC4CN5)n3)ncc2s1 (centres unmarked) [Example 315, {6-(5-fluoro-2-azabicyclo[2.2.1]hept-5-yl)-2-pyridyl}[2-(3-methyl-2-pyridyl)-3-thia-1,5-diaza-6-indenyl]amine]	IC50 (HPK1; [3]): < 100 nM
< 100	100 to 1000	–	–	CCN1C[C@@H]2C[C@H]1CN2c1nc(C)cc(Nc2cc3nc(-c4cncc(N5CCC(F)CC5)c4)sc3cn2)n1 [Example 470]	–
< 100	< 100	–	–	Cc1cc(Nc2cc3nc(-c4cccc(C(=O)N(C)C)c4)sc3cn2)nc(N2C[C@@H]3C[C@H]2CN3[C@H]2CCOC2)n1 [Example 487]	–
–	–	< 100	100 to 1000	Cc1cccnc1-c1nc2cc(Nc3ccc(C4CCOC4)c(CN4CCCC4)n3)ncc2s1 (racemic) [Example 252, N-[2-(3-Methylpyridin-2-yl)-[1,3]thiazolo[5,4-c]pyridin-6-yl]-5-(oxolan-3-yl)-6-[(pyrrolidin-1-yl)methyl]pyridin-2-amine]	–
–	–	< 100	100 to 1000	Cc1cc(-c2nc3cc(Nc4ccc(C5CCOC5)c(CN5CCCC5)n4)ncc3s2)ccn1 (centres unmarked) [Example 253, N-[2-(2-Methylpyridin-4-yl)-[1,3]thiazolo[5,4-c]pyridin-6-yl]-5-(oxolan-3-yl)-6-[(pyrrolidin-1-yl)methyl]pyridin-2-amine]	–
–	–	< 100	1000 to 5000	Cc1cccnc1-c1nc2cc(Nc3ccc(C4CC4)c(CN4CCCC4)n3)ncc2s1 [Example 262, 5-Cyclopropyl-N-[2-(3-methylpyridin-2-yl)-[1,3]thiazolo[5,4-c]pyridin-6-yl]-6-[(pyrrolidin-1-yl)methyl]pyridin-2-amine]	–
–	–	< 100	< 100	c1cc(Nc2cc3nc(-n4cccn4)sc3cn2)nc(N2C[C@@H]3C[C@H]2CN3)c1 [Example 82, 6-[(1S,4S)-2,5-Diazabicyclo[2.2.1]heptan-2-yl]-N-[2-(1H-pyrazol-1-yl)-[1,3]thiazolo[5,4-c]pyridin-6-yl]pyridin-2-amine]	–
< 100	100 to 1000	–	–	CCN1C[C@@H]2C[C@H]1CN2c1nc(C)cc(Nc2cc3nc(-c4cccc(C(=O)N(C)CC5CCOCC5)c4)sc3cn2)n1 [Example 523]	–
